PubChem BioAssay AID1259407 (Chemical Carcinogenesis Research Information System (CCRIS), 2018)
Active and inactive are the calls of the source. No rule for the calls is given here.

System: CCRIS mutagenicity, Ames/micronucleus/aberration tests
Assay: CCRIS mutagenicity studies
[1] = Test System: AMES SALMONELLA TYPHIMURIUM, Strain/Indicator: TA98, Metabolic Activation: NONE, Method: STANDARD PLATE
[2] = Test System: AMES SALMONELLA TYPHIMURIUM, Strain/Indicator: TA98, Metabolic Activation: RAT, LIVER, S-9, AROCLOR 1254, Method: STANDARD PLATE
[3] = Test System: AMES SALMONELLA TYPHIMURIUM, Strain/Indicator: TA100, Metabolic Activation: NONE, Method: STANDARD PLATE
[4] = Test System: AMES SALMONELLA TYPHIMURIUM, Strain/Indicator: TA100, Metabolic Activation: RAT, LIVER, S-9, AROCLOR 1254, Method: STANDARD PLATE
[5] = Test System: AMES SALMONELLA TYPHIMURIUM, Strain/Indicator: TA1535, Metabolic Activation: NONE, Method: STANDARD PLATE
[6] = Test System: AMES SALMONELLA TYPHIMURIUM, Strain/Indicator: TA1535, Metabolic Activation: RAT, LIVER, S-9, AROCLOR 1254, Method: STANDARD PLATE
[7] = Test System: AMES SALMONELLA TYPHIMURIUM, Strain/Indicator: TA1537, Metabolic Activation: NONE, Method: STANDARD PLATE
[8] = Test System: AMES SALMONELLA TYPHIMURIUM, Strain/Indicator: TA1537, Metabolic Activation: RAT, LIVER, S-9, AROCLOR 1254, Method: STANDARD PLATE
[9] = Test System: AMES SALMONELLA TYPHIMURIUM, Strain/Indicator: TA1538, Metabolic Activation: NONE, Method: STANDARD PLATE
[10] = Test System: AMES SALMONELLA TYPHIMURIUM, Strain/Indicator: TA1538, Metabolic Activation: RAT, LIVER, S-9, AROCLOR 1254, Method: STANDARD PLATE

C/C=C/c1ccc(O)c(OC)c1
mutagenic call (End Point: E. coli, Test System: WP2uvrA/pKM101, Metabolic Activation: None, Method: Preincubation): inactive; negative | mutagenic call (End Point: E. coli, Test System: WP2uvrA/pKM101, Metabolic Activation: Rat, Liver, S-9, Aroclor 1254 (10%), Method: Preincubation): inactive; negative | mutagenic call (End Point: In vitro chromosomal aberrations, Test System: Chinese hamster ovary (CHO) cells, Metabolic Activation: None): inactive; negative | mutagenic call (End Point: In vitro chromosomal aberrations, Test System: Chinese hamster ovary (CHO) cells, Metabolic Activation: Rat, Liver, S-9, Aroclor 1254): inactive; negative | mutagenic call (End Point: In vivo micronucleus, Test System: Micronucleated normochromatic erythrocytes in perripheral blood, Species: Mouse, Strain/Sex: B6C3F1 / Female, Route: Oral): active; positive | mutagenic call (End Point: In vivo micronucleus, Test System: Micronucleated normochromatic erythrocytes in perripheral blood, Species: Mouse, Strain/Sex: B6C3F1 / Male, Route: Oral): inactive; negative | mutagenic call (Test System: AMES SALMONELLA TYPHIMURIUM, Strain/Indicator: TA97, Metabolic Activation: NONE, Method: PREINCUBATION): inactive; negative | mutagenic call (Test System: AMES SALMONELLA TYPHIMURIUM, Strain/Indicator: TA97, Metabolic Activation: RAT, LIVER, S-9, AROCLOR 1254, Method: PREINCUBATION): inactive; negative | mutagenic call (Test System: AMES SALMONELLA TYPHIMURIUM, Strain/Indicator: TA98, Metabolic Activation: HAMSTER, LIVER, S-9, AROCLOR 1254, Method: STANDARD PLATE): inactive; negative | mutagenic call [1]: inactive; negative | mutagenic call [2]: inactive; negative | mutagenic call (Test System: AMES SALMONELLA TYPHIMURIUM, Strain/Indicator: TA100, Metabolic Activation: HAMSTER, LIVER, S-9, AROCLOR 1254, Method: STANDARD PLATE): inactive; negative | mutagenic call [3]: inactive; negative | mutagenic call [4]: inactive; negative | mutagenic call (Test System: AMES SALMONELLA TYPHIMURIUM, Strain/Indicator: TA102, Metabolic Activation: NONE, Method: PREINCUBATION): inactive; negative | mutagenic call (Test System: AMES SALMONELLA TYPHIMURIUM, Strain/Indicator: TA102, Metabolic Activation: RAT, LIVER, S-9, AROCLOR 1254, Method: PREINCUBATION): inactive; negative | mutagenic call (Test System: AMES SALMONELLA TYPHIMURIUM, Strain/Indicator: TA1535, Metabolic Activation: HAMSTER, LIVER, S-9, AROCLOR 1254, Method: STANDARD PLATE): inactive; negative | mutagenic call [5]: inactive; negative | mutagenic call [6]: inactive; negative | mutagenic call (Test System: AMES SALMONELLA TYPHIMURIUM, Strain/Indicator: TA1537, Metabolic Activation: HAMSTER, LIVER, S-9, AROCLOR 1254, Method: STANDARD PLATE): inactive; negative | mutagenic call [7]: inactive; negative | mutagenic call [8]: inactive; negative | mutagenic call (Test System: AMES SALMONELLA TYPHIMURIUM, Strain/Indicator: TA1538, Metabolic Activation: HAMSTER, LIVER, S-9, AROCLOR 1254, Method: STANDARD PLATE): inactive; negative | mutagenic call [9]: inactive; negative | mutagenic call [10]: inactive; negative | mutagenic call (Test System: MOUSE LYMPHOMA, Strain/Indicator: L5178Y (TK+/TK-), Metabolic Activation: NONE, Method: SUSPENSION/PLATE): active; positive. reevaluation of results: positive | mutagenic call (Test System: MOUSE LYMPHOMA, Strain/Indicator: L5178Y (TK+/TK-), Metabolic Activation: RAT, LIVER, S-9, AROCLOR 1254, Method: SUSPENSION/PLATE): inactive; negative. reevaluation of results: negative

COC(=O)[C@H]1O[C@@H]1c1ccccc1
mutagenic call [1]: inactive; negative | mutagenic call [2]: inactive; negative | mutagenic call [4]: inactive; negative | mutagenic call [5]: inactive; negative | mutagenic call [6]: inactive; negative | mutagenic call [7]: inactive; negative | mutagenic call [8]: inactive; negative | mutagenic call [9]: inactive; negative | mutagenic call [10]: inactive; negative

Cc1c(N)cnc2c1nc1c(C)cccn12
mutagenic call [1]: inactive; negative | mutagenic call (Test System: AMES SALMONELLA TYPHIMURIUM, Strain/Indicator: TA98, Metabolic Activation: RAT, LIVER, CYTOSOL, AROCLOR 1254, Method: STANDARD PLATE): active; positive | mutagenic call (Test System: AMES SALMONELLA TYPHIMURIUM, Strain/Indicator: TA98, Metabolic Activation: RAT, LIVER, MICROSOMES, AROCLOR 1254, Method: STANDARD PLATE): active; positive | mutagenic call [2]: active; positive

C=C(CC(=O)OCC)C(=O)O
mutagenic call (Test System: Chinese Hamster ovary (CHO) cells, Metabolic Activation: None, Method: HGPRT/6-Thioguanine): inactive; negative

CCOc1ccc(N)cc1
mutagenic call (Test System: AMES SALMONELLA TYPHIMURIUM, Strain/Indicator: TA98, Metabolic Activation: HAMSTER, LIVER, S-9, AROCLOR 1254 (30%), Method: PREINCUBATION): inactive; negative | mutagenic call (Test System: AMES SALMONELLA TYPHIMURIUM, Strain/Indicator: TA98, Metabolic Activation: NONE, Method: PREINCUBATION): inactive; negative | mutagenic call (Test System: AMES SALMONELLA TYPHIMURIUM, Strain/Indicator: TA98, Metabolic Activation: RAT, LIVER, S-9, AROCLOR 1254 (30%), Method: PREINCUBATION): inactive; negative | mutagenic call (Test System: AMES SALMONELLA TYPHIMURIUM, Strain/Indicator: TA100, Metabolic Activation: HAMSTER, LIVER, S-9, AROCLOR 1254 (30%), Method: PREINCUBATION): active; positive | mutagenic call (Test System: AMES SALMONELLA TYPHIMURIUM, Strain/Indicator: TA100, Metabolic Activation: HAMSTER, LIVER, S-9, KANECHLOR 400, Method: PREINCUBATION): active; positive | mutagenic call (Test System: AMES SALMONELLA TYPHIMURIUM, Strain/Indicator: TA100, Metabolic Activation: NONE, Method: PREINCUBATION): inactive; negative | mutagenic call (Test System: AMES SALMONELLA TYPHIMURIUM, Strain/Indicator: TA100, Metabolic Activation: RAT, LIVER, S-9, AROCLOR 1254 (30%), Method: PREINCUBATION): active; positive | mutagenic call (Test System: UDS RODENT HEPATOCYTES, Strain/Indicator: THY INCORP (NON-S-PHASE), Metabolic Activation: NONE, Method: AUTORADIOGRAPHY): inactive; negative

C[N+]1(CCNP(=S)(NCC[N+]2(C)Cc3c(ccc4c3OCO4)[C@@H]3[C@H]2c2cc4c(cc2C[C@@H]3O)OCO4)NCC[N+]2(C)Cc3c(ccc4c3OCO4)[C@@H]3[C@H]2c2cc4c(cc2C[C@@H]3O)OCO4)Cc2c(ccc3c2OCO3)[C@@H]2[C@H]1c1cc3c(cc1C[C@@H]2O)OCO3 (some centres undefined)
mutagenic call [3]: inactive; negative | mutagenic call [4]: inactive; negative

COc1cc(-c2ccc(N/N=C3\C=Cc4c(S(=O)(=O)O)cc(S(=O)(=O)O)c(N)c4C3=O)c(OC)c2)ccc1N/N=C1/C=Cc2c(S(=O)(=O)O)cc(S(=O)(=O)O)c(N)c2C1=O
mutagenic call (Test System: AMES SALMONELLA TYPHIMURIUM, Strain/Indicator: TA98, Metabolic Activation: HAMSTER, LIVER, S-9, Method: PREINCUBATION (PRIVAL METHOD)): active; positive | mutagenic call (Test System: Ames Salmonella typhimurium, Strain/Indicator: TA98, Metabolic Activation: Rat, Liver, S-9, Sodium phenobarbitone, Method: Preincubation): inactive; negative, test conducted under both aerobic and anaerobic conditions. | mutagenic call (Test System: Ames Salmonella typhimurium, Strain/Indicator: TA1538, Metabolic Activation: Rat, Liver, S-9, Sodium phenobarbitone, Method: Preincubation): inactive; negative, test conducted under both aerobic and anaerobic conditions.
